Source: the NIST ThermoML archive (doi:10.1016/j.jct.2005.10.004)
Several values for one entry are separate records, joined by “and”; a condition that tells them apart may be missing. Identical values can stand only once.

Conditions: Liquid, Buoyancy - hydrostatic balance with magnetic suspension - one sinker

N#N [nitrogen]
Conditions | mass density
249.96 K, 5023.9 kPa | 69.8983 kg/m3
249.96 K, 5024.2 kPa | 69.9018 kg/m3
249.96 K, 10070 kPa | 141.612 kg/m3
249.96 K, 15267 kPa | 211.548 kg/m3
249.96 K, 15270 kPa | 211.579 kg/m3 and 211.588 kg/m3
249.96 K, 19857 kPa | 266.561 kg/m3
250 K, 4994.5 kPa | 69.4686 kg/m3
274.97 K, 10066 kPa | 125.016 kg/m3 and 125.014 kg/m3
274.97 K, 19871 kPa | 235.319 kg/m3
274.97 K, 19875 kPa | 235.358 kg/m3
299.97 K, 10974 kPa | 122.253 kg/m3
299.97 K, 13855 kPa | 152.56 kg/m3 and 152.561 kg/m3
299.97 K, 16780 kPa | 181.982 kg/m3
299.98 K, 16788 kPa | 182.05 kg/m3
399.99 K, 10101 kPa | 81.9701 kg/m3
399.99 K, 14807 kPa | 117.441 kg/m3
399.99 K, 17250 kPa | 135.043 kg/m3
400 K, 7435.4 kPa | 61.0376 kg/m3
400 K, 10100 kPa | 81.9663 kg/m3
400 K, 19953 kPa | 153.853 kg/m3
400 K, 19959 kPa | 153.899 kg/m3
